Measured values: patent publication US20240262842A1, “SMALL MOLECULE INHIBITORS OF KRAS G12C MUTANT” (Merck Sharp & Dohme LLC, priority 2021, published 2024)
Read-outs that look alike come from different tables or passages of the source.

Legend:
MIA PaCa-2 cells = experiment: Growth inhibition activity on KRAS-G12C mutant cell line (CellTiter-Glo 3D); assay type: cell-based, human; settings: MIA PaCa-2, 3-day culture with compound
How it was run: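 MIA PaCa-2 cells in RPMI1640 with 10% FBS, U-bottom wells, cultured 1 day before compound (0.2% DMSO final), then 3 days at 37 °C, 5% CO2. Viability by CellTiter-Glo 3D luminescence; growth inhibition versus untreated wells gives IC50 (nM).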

[1] = target: T1, interaction between GMPPNP-bound recombinant K-Ras4B G12C mutant protein and cRAF RAS-binding domain (cRAF-RBD) (Homo sapiens, UniProt P01116, G12C); experiment: Inhibitory activity on interaction between KRAS G12C and cRAF (Alpha technology)
T1 construct: His-tag (N)
How it was run: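 His-tagged K-Ras4B G12C (aa 1-169), GMPPNP-loaded, preincubated with compound 1 h at 25° C in pH 7.5 Tris buffer with MgCl2, TCEP, Tween 20. cRAF-RBD (aa 50-132) and Alpha reagents then added for 1.5 h; Alpha signal normalised to DMSO (0%) and GDP-bound KRAS (100%); IC50 from dose titration.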

[2] = Homo sapiens, MIA PaCa-2, 72 h, Table 3-1
[3] = GMPPNP-bound KRAS G12C incubated with compound 25° C. 1 hour, Table 2-1, read-out: IC50
[4] = IC50, GMPPNP-bound KRAS G12C incubated with compound 25° C. 1 hour, Table 2

T1 sequence (P01116 with tags, fused parts or gaps isoform P01116-2 G12C): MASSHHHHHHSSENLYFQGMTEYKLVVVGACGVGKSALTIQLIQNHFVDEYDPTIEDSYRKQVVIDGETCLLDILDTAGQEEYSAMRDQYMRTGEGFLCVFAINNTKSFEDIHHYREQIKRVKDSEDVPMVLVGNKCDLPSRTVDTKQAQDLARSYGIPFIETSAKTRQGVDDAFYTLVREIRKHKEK

SMILES | IC50 (MIA PaCa-2 cells; [2]) | IC50 [1, 3] | other results
CN1CCc2nc(C(=O)c3cc(F)c(NC(=O)C=CCNC4(C)COC4)c(F)c3)n3cccc(c23)-c2c(C(F)(F)F)cc3c(ncn3C)c21 [Example 157, (E)-N-(4-(8,11-dimethyl-6-(trifluoromethyl)-8,11,12,13-tetrahydro-1,2a,8,10,11-pentaaza-cycloocta[1,2,3-cd:5,4-e′]-diindene-2-carbonyl)-2,6-difluorophenyl)-4-((3-methyloxetan-3-yl)-amino)but-2-enamide] | 62.1 nM | 67.6 nM | 
CO[C@H]1CC[C@H](NC/C=C/C(=O)Nc2c(F)cc(C(=O)c3cn4c5c(cccc35)-c3c(Cl)cccc3OCC4)cc2F)CC1 (single isomer, unassigned) [Example 1-1] |  |  | IC50 (MIA PaCa-2 cells; Table 3): 7700 nM; IC50 [1, 4]: > 6700 nM
COCc1nc2c3c(c(C)cc2n1C)-c1cccn2c(C(=O)c4cc(F)c(NC(=O)/C=C/CN[C@H]5CC[C@H](OC)CC5)c(F)c4)cc(c12)CCN3C (single isomer, unassigned) [Example 105, (E)-N-(2,6-difluoro-4-(10-(methoxymethyl)-7,9,12-trimethyl-9,12,13,14-tetra-hydroimidazo[4″,5″:5′,6′]-benzo[1′,2′:2,3]azocino-[4,5,6-hi]indolizine-2-carbonyl)phenyl)-4-(((1r,4r)-4-methoxycyclo-hexyl)amino)but-2-en-amide] | 15.5 nM | 19.2 nM | 
CO[C@H]1CC[C@H](NC/C=C/C(=O)Nc2c(F)cc(C(=O)c3cn4c5c(cccc35)-c3c(C)cc5c(nc(C)n5C)c3OC[C@@H](C)C4)cc2F)CC1 [Example 22, (E)-N-(2,6-difluoro-4-((S)-6,8,9,13-tetramethyl-13,14-dihydro-8H, 12H-imidazo[4″,5″:3′,4′]benzo[1′,248,9][1,5]oxazonino[7,6,5-hi]indole-2-carbonyl)phenyl)-4-(((1,4r)-4-methoxycyclohexyl)amino)but-2-enamide] |  |  | IC50 (MIA PaCa-2 cells; Homo sapiens, MIA PaCa-2, 72 h, Table 3): 100 nM; IC50 [1, 4]: 100 nM
CN1CCc2nc(C(=O)c3cc(F)c(NC(=O)/C=C/CNC4(C)CC4)c(F)c3)n3cccc(c23)-c2c(C(F)(F)F)cc3c(ncn3C)c21 (single isomer, unassigned) [Example 182] | 27.8 nM | 35.2 nM | 
CN1CCc2cc(C(=O)c3cc(F)c(NC(=O)/C=C/CN[C@H]4CCOC4)c(F)c3)n3cccc(c23)-c2c(C(F)(F)F)cc3[nH]cnc3c21 (atropisomer, axis not shown) [Example 218] | 14.2 nM | 27 nM | 
COCc1nc2c3c(c(OC)cc2n1C)-c1cccn2c(C(=O)c4cc(F)c(NC(=O)/C=C/CN[C@H]5CCOC5)c(F)c4)cc(c12)CCN3C (single isomer, unassigned) [Example 171] | 13.5 nM | 6.34 nM | 
CC(=O)N1CCC(C)(NC/C=C/C(=O)Nc2c(F)cc(C(=O)c3cc4c5c(cccn35)-c3c(C(F)(F)F)cc5c(ncn5C)c3N(C)CC4)cc2F)CC1 [Example 86, (E)-4-((1-acetyl-4-methyl-piperidin-4-yl)amino)-N-(4-(9,12-dimethyl-7-(trifluoromethyl)-9,12,13,14-tetrahydro-imidazo[4″,5″:5′,6′]benzo-[1′,2′:2,3]azocino[4,5,6-hi]indolizine-2-carbonyl)-2,6-difluorophenyl)but-2-enamide] | 6.11 nM | 22.3 nM | 
Cn1cnc2c3c(c(C(F)(F)F)cc21)-c1cccn2c(C(=O)c4cc(F)c(NC(=O)/C=C/CN5CC[C@H]6CC[C@@H](O)[C@H]65)c(F)c4)cc(c12)CCO3 (racemic) [Example 164] | 13.7 nM | 21.5 nM | 
Cn1cnc2c3c(c(C(F)(F)F)cc21)-c1cccn2c(C(=O)c4cc(F)c(NC(=O)/C=C/CN5C[C@H]6COC[C@H]6C5)c(F)c4)cc(c12)CCO3 [Example 213, (E)-N-(2,6-difluoro-4-(9-methyl-7-(trifluorometh-yl)-13,14-dihydro-9H-imidazo[4″,5″:5′,6′]benzo-[1′,2′:2,3]oxocino[4,5,6-hi]indolizine-2-carbonyl)-phenyl)-4-((3aR,6aS)-tetrahydro-1H-furo[3,4-c]pyrrol-5(3H)-yl)but-2-enamide] | 25.3 nM | 62.1 nM | 
COCc1nc2c3c(c(OC)cc2n1C)-c1cccn2c(C(=O)c4cc(F)c(NC(=O)/C=C/CN[C@H]5CCOC5)c(F)c4)nc(c12)CCN3C (single isomer, unassigned) [Example 177] | 38.5 nM | 39.5 nM | 
COc1cc2c(nc(C)n2C)c2c1-c1cccn3c(C(=O)c4cc(F)c(NC(=O)/C=C/CNC5(C)CC5)c(F)c4)cc(c13)CCN2C (single isomer, unassigned) [Example 140, (E)-N-(2,6-difluoro-4-(7-methoxy-9,10,12-trimethyl-9,12,13,14-tetrahydroimidazo[4″,5″:5′,6′]benzo[1′,2′:2,3]azocino[4,5,6-hi]indolizine-2-carbonyl)phenyl)-4-((1-methylcyclopropyl)amino)but-2-enamide] | 7.59 nM | 4.13 nM | 
COCCn1cnc2c3c(c(C(F)(F)F)cc21)-c1cccn2c(C(=O)c4cc(F)c(NC(=O)/C=C/CN[C@H]5CCOC5)c(F)c4)cc(c12)CCN3C (single isomer, unassigned) [Example 186] | 10.3 nM | 16.7 nM | 
Cc1cc2c(nc(C)n2C)c2c1-c1cccc3c(C(=O)c4cc(F)c(NC(=O)/C=C/CNC(C)(C)C(=O)N(C)C)c(F)c4)cn(c13)CCN2C [Example 103] | 303 nM |  | IC50 ([1]; IC50, GMPPNP-bound KRAS G12C incubated with compound 25° C. 1 hour, Table 2-1): 99.2 nM
CO[C@H]1CC[C@H](NC/C=C/C(=O)Nc2c(F)cc(C(=O)c3c(C)c4c5c(cccn35)-c3c(C(F)(F)F)cc5c(nc(C)n5C)c3OCC4)cc2F)CC1 (single isomer, unassigned) [Example 64, (E)-N-(2,6-difluoro-4-(1,9,10-trimethyl-7-(tri-fluoromethyl)-13,14-dihydro-9H-imidazo-[4″,5″:5′,6′]benzo[1′,2′: 2,3]oxocino[4,5,6-hi]-indolizine-2-carbonyl)-phenyl)-4-(((1r,4r)-4-methoxycyclohexyl)-amino)but-2-enamide] | 11 nM | 14.2 nM | 
CN1CCc2cc(C(=O)c3cc(F)c(NC(=O)/C=C/CN4[C@@H]5CC[C@H]4[C@H](O)C5)c(F)c3)n3cccc(c23)-c2c(C(F)(F)F)cc3c(ncn3C)c21 (single isomer, unassigned) [Example 206] | 10.3 nM | 15.4 nM | 
COc1cc(N2CCCC2=O)cc2c1-c1cccn3c(C(=O)c4cc(F)c(NC(=O)/C=C/CN[C@H]5CCOC5)c(F)c4)cc(c13)CCN2C [Example 191, (S,E)-N-(2,6-difluoro-4-(9-methoxy-5-methyl-7-(2-oxopyrrolidin-1-yl)-4,5-dihydro-3H-benzo-[2,3]azocino[4,5,6-hi]-indolizine-1-carbonyl)-phenyl)-4-((tetrahydro-furan-3-yl)amino)but-2-enamide] | 167 nM | 97.1 nM | 
COCCn1c(COC)nc2c3c(c(OC)cc21)-c1cccn2c(C(=O)c4cc(F)c(NC(=O)/C=C/CN[C@H]5CCOC5)c(F)c4)cc(c12)CCN3C (single isomer, unassigned) [Example 247] | 28.5 nM | 23.4 nM | 
Cc1cc2c(nc(C)n2C)c2c1-c1cccn3c(C(=O)c4cc(F)c(NC(=O)/C=C/CN[C@H]5CCOC5)c(F)c4)cc(c13)CCN2C (single isomer, unassigned) [Example 107] | 29.7 nM | 23.7 nM | 
CN1CCc2cc(C(=O)c3cc(F)c(NC(=O)/C=C/CN4C[C@@H]5C[C@H]4CO5)c(F)c3)n3cccc(c23)-c2c(C(F)(F)F)cc3c(ncn3C)c21 [Example 208, (E)-4-((1S,4S)-2-oxa-5-azabicyclo[2.2.1]heptan-5-yl)-N-(4-(9,12-dimeth-yl-7-(trifluoromethyl)-9,12,13,14-tetrahydro-imidazo[4″,5″:5′,6′]benzo-[1′,2′:2,3]azocino[4,5,6-hi]indolizine-2-carbonyl)-2,6-difluorophenyl)but-2-enamide] | 11.4 nM | 35.4 nM | 
Cc1nc2c3c(c(C(F)(F)F)cc2n1C)-c1cccn2c(C(=O)c4cc(F)c(NC(=O)/C=C/CNC(C)(C)CF)c(F)c4)cc(c12)CCO3 [Example 56] | 12.6 nM | 12.4 nM | 
Cc1nc2c3c(c(C(F)(F)F)cc2n1C)-c1cccn2c(C(=O)c4ccc(NC(=O)/C=C/CNC5(C)COC5)cn4)cc(c12)CCO3 [Example 60, (E)-N-(6-(9,10-dimethyl-7-(trifluoromethyl)-13,14-dihydro-9H-imidazo-[4″,5″:5′,6′]benzo[1′,2′: 2,3]oxocino[4,5,6-hi]-indolizine-2-carbonyl)-pyridin-3-yl)-4-((3-meth-yloxetan-3-yl)amino)but-2-enamide] | 32.1 nM | 73.2 nM | 
CO[C@H]1CC[C@H](NC/C=C/C(=O)Nc2c(F)cc(C(=O)c3cc4c5c(cccn35)-c3c(C(F)(F)F)cc5c(nc(C)n5C)c3OCC4)cc2F)CC1 (single isomer, unassigned) [Example 30-1, (E)-N-(4-(9,10-dimethyl-7-(trifluoromethyl)-13,14-dihydro-9H-imidazo[4″,5″:5′,6′]benzo[1′,2′:2,3]oxocino[4,5,6-hi]indolizine-2-carbonyl)-2,6-difluorophenyl)-4-(((1r,4r)-4-methoxycyclohexyl)amino)but-2-enamide] |  |  | IC50 (MIA PaCa-2 cells; Table 3): 3 nM; IC50 ([1]; GMPPNP-bound KRAS G12C incubated with compound 25° C. 1 hour, Table 2, read-out: IC50): 7 nM
